Here are results for three compounds from US20100285959A1, “HERBICIDAL MIXTURES” (priority 2006, published 2010).

Assay [1] relates to velvetleaf (ABUTH). Put plainly: Test 16 greenhouse, post- and preemergence. The settings on record: 15 DAA.
The test system of assay [2] is velvetleaf (ABUTH). Put plainly: Test 18 greenhouse, post- and preemergence. The settings on record: 15 DAA.
For assay [3], the system named is velvetleaf (ABUTH). As to the kind of experiment: Test 17 greenhouse, post- and preemergence. The settings on record: 12 DAA. It counts as in vivo, Abutilon theophrasti. The source says: Plants were watered as needed.

Take `O=C(O)c1cc(Oc2ccc(C(F)(F)F)cc2Cl)ccc1[N+](=O)[O-]` [Acifluorfen]: the “Obs response, scale 0 to 100” value in the assay with velvetleaf (ABUTH) [1] (Postemergence, 7.5 g a.i./ha) was determined as 0; in the assay with velvetleaf (ABUTH) [1] (Postemergence, 15 g a.i./ha), 0; in the assay with velvetleaf (ABUTH) [1] (Postemergence, 30 g a.i./ha), 0; in the assay with velvetleaf (ABUTH) [1] (Preemergence, 7.5 g a.i./ha), 0; in the assay with velvetleaf (ABUTH) [1] (Preemergence, 15 g a.i./ha) it was 2; in the assay with velvetleaf (ABUTH) [1] (Preemergence, 30 g a.i./ha), 2.
Regarding `C#CCOc1cc(-n2nc3n(c2=O)CCCC3)c(Cl)cc1Cl` [Azafenidin], the “Postemergence ABUTH Obs” value in the assay with velvetleaf (ABUTH) [2] (alone at 7.5 g a.i./ha) was 46; with velvetleaf (ABUTH) [2] (alone at 15 g a.i./ha), 73; in the assay with velvetleaf (ABUTH) [2] (alone at 30 g a.i./ha), 81; in the assay on velvetleaf (ABUTH) [2] (alone at 45 g a.i./ha) it was 86. Moreover, the “Preemergence ABUTH Obs” value is listed as 18 with velvetleaf (ABUTH) [2] (alone at 7.5 g a.i./ha), 35 in the assay on velvetleaf (ABUTH) [2] (alone at 15 g a.i./ha), 67 with velvetleaf (ABUTH) [2] (alone at 30 g a.i./ha) and 68 in the assay with velvetleaf (ABUTH) [2] (alone at 45 g a.i./ha).
Take `Cc1nn(-c2cc(CC(Cl)C(=O)O)c(Cl)cc2F)c(=O)n1C(F)F` (centres unmarked) [Carfentrazone]: the “Obs response, scale 0 to 100” value in the assay with velvetleaf (ABUTH) [3] (Postemergence, 7.5 g a.i./ha) is recorded as 70; with velvetleaf (ABUTH) [3] (Postemergence, 15 g a.i./ha), 79; in the assay with velvetleaf (ABUTH) [3] (Postemergence, 30 g a.i./ha) it was 82; in the assay with velvetleaf (ABUTH) [3] (Preemergence, 7.5 g a.i./ha), 4; with velvetleaf (ABUTH) [3] (Preemergence, 15 g a.i./ha), 8; in the assay with velvetleaf (ABUTH) [3] (Preemergence, 30 g a.i./ha), 8.
